Reference: patent US5726186A, “Pentacyclic compounds, intermediates, processes, compositions, and methods” (Eli Lilly and Company, priority 1996, dated 1998)

Experiments:
[1] = system: Uterine Eosinophil Peroxidase (EPO); assay: Uterine Eosinophil Peroxidase (EPO) Assay; format: in vivo, female Sprague Dawley rats (ovariectomized); parameters: Uterine EPO (V. max): unit not given here; settings: oral, daily for 4 days, OVX rats; for Uterine EPO (V. max): 450 nm
Description: (§1) Seventy-five day old female Sprague Dawley rats (weight range of 200 to 225 g) were obtained from Charles River Laboratories (Portage, Mich.). The animals were either bilaterally ovariectomized (OVX) or exposed to a Sham surgical procedure at Charles River Laboratories, and then shipped after one week. Upon arrival, they were housed in metal hanging cages in groups of 3 or 4 per cage and had ad libitum access to food (calcium content approximately 0.5%) and water for one week. Room temperature was maintained at 22.2°±1.7° C. with a minimum relative humidity of 40%. The photoperiod in the room was 12 hours light and 12 hours dark.
(§2) Dosing Regimen Tissue Collection. After a one week acclimation period (therefore, two weeks post-OVX) daily dosing with test compound was initiated. 17a-ethynyl estradiol or the test compound were given orally, unless otherwise stated, as a suspension in 1% carboxymethylcellulose or dissolved in 20% cyclodextrin. Animals were dosed daily for 4 days. Following the dosing regimen, animals were weighed and anesthetized with a ketamine: Xylazine (2:1, V:V) mixture and a blood sample was collected by cardiac puncture. The animals were then sacrificed by asphyxiation with CO2, the uterus was removed through a midline incision, and a wet uterine weight was determined.
Uterine Eosinophil Peroxidase (EPO) Assay. Uteri were kept at 4° C. until time of enzymatic analysis. The uteri were then homogenized in 50 volumes of 50 mM Tris buffer (pH-8.0) containing 0.005% Triton X-100. Upon addition of 0.01% hydrogen peroxide and 10 mM O-phenylenediamine (final concentrations) in Tris buffer, increase in absorbance was monitored for one minute at 450 nm. The presence of eosonophils in the uterus is an indication of estrogenic activity of a compound. The maximal velocity of a 15 second interval was determined over the initial, linear portion of the reaction curve.
As is expressed in the below data, estrogenicity also was assessed by evaluating the adverse response of eosinophil infiltration into the uterus.
(§3) The data presented in the Tables 1 below reflects the response of 5 to 6 rats per treatment.

[2] = system: Distal Femur Metaphysis; assay: Osteoporosis test, distal femur metaphysis X-ray image analysis; format: in vivo, female Sprague Dawley rats (ovariectomized); settings: oral; for Distal Femur Metaphysis (X-ray Image Analysis-Gray Score), percent protection relative to ovariectomy: daily for 35 days, in 20% hydroxypropyl b-cyclodextrin
Description: Seventy-five day old female Sprague Dawley rats (weight range of 200 to 225 g) were obtained from Charles River Laboratories (Portage, Mich.). The animals were either bilaterally ovariectomized (OVX) or exposed to a Sham surgical procedure at Charles River Laboratories, and then shipped after one week. Upon arrival, they were housed in metal hanging cages in groups of 3 or 4 per cage and had ad libitum access to food (calcium content approximately 0.5%) and water for one week. Room temperature was maintained at 22.2°±1.7° C. with a minimum relative humidity of 40%. The photoperiod in the room was 12 hours light and 12 hours dark. Following the General Preparation Procedure, infra, the rats were treated daily for 35 days (6 rats per treatment group) and sacrificed by carbon dioxide asphyxiation on the 36th day. The 35 day time period was sufficient to allow maximal reduction in bone density, measured as described herein. At the time of sacrifice, the uteri were removed, dissected free of extraneous tissue, and the fluid contents were expelled before determination of wet weight in order to confirm estrogen deficiency associated with complete ovariectomy. […] The uteri were then placed in 10% neutral buffered formalin to allow for subsequent histological analysis. The right femurs were excised and digitilized x-rays generated and analyzed by an image analysis program (NIH image) at the distal metaphysis. The proximal aspect of the tibiae from these animals were also scanned by quantitative computed tomography. In accordance with the above procedures, compounds of the present invention and ethynyl estradiol (EE2) in 20% hydroxypropyl b-cyclodextrin were orally administered to test animals. Distal femur metaphysis data presented in Tables 2 and 3 below are the results of formula I compound treatments compared to intact and ovariectomized test animals. Results are reported as percent protection relative to ovariectomy.

[3] = system: uterus; assay: Wet uterine weight in ovariectomized rats (post-menopausal model); format: in vivo, female Sprague Dawley rats (ovariectomized); settings: oral, OVX rats
Protocol: In the examples illustrating the methods, a post-menopausal model was used in which effects of different treatments upon circulating lipids were determined.
as §1, §2, §3

[4] = system: Serum Cholesterol; assay: Serum cholesterol analysis in ovariectomized rats; format: in vivo, female Sprague Dawley rats (ovariectomized); settings: oral, OVX rats
Description: as §1, §2
Cholesterol Analysis. Blood samples were allowed to clot at room temperature for 2 hours, and serum was obtained following centrifugation for 10 minutes at 3000 rpm. Serum cholesterol was determined using a Boehringer Mannheim Diagnostics high performance cholesterol assay. Briefly the cholesterol was oxidized to cholest-4-en-3-one and hydrogen peroxide. The hydrogen peroxide was then reacted with phenol and 4-aminophenazone in the presence of peroxidase to produce a p-quinone imine dye, which was read spectrophotemetrically at 500 nm. Cholesterol concentration was then calculated against a standard curve. The entire assay was automated using a Biomek Automated Workstation.
as §3

[5] = system: MCF-7 breast adenocarcinoma cells; assay: MCF-7 Proliferation Assay (tritiated thymidine); format: cell-based; settings: Homo sapiens, MCF7; MCF-7 cells, 48 hours, tritiated thymidine pulse 4 hours
Protocol: MCF-7 breast adenocarcinoma cells (ATCC HTB 22) were maintained in MEM (minimal essential medium, phenol red-free, Sigma, St. Louis, Mo.) supplimented with 10% fetal bovine serum […] (V/V), L-glutamine (2 mM), sodium pyruvate (1 mM), HEPES {(N-[2-hydroxyethyl]piperazine-N'-[2-ethanesulfonic acid]10 mM)}, non-essential amino acids and bovine insulin (1 ug/mL) (maintenance medium). Ten days prior to assay, MCF-7 cells were switched to maintenance medium supplemented with 10% dextran coated charcoal stripped fetal bovine serum (DCC-FBS) assay medium) in place of 10% FBS to deplete internal stores of steroids. MCF-7 cells were removed from maintenance flasks using cell dissociation medium (Ca++/Mg++ free HBSS (phenol red-free) supplemented with 10 mM HEPES and 2 mM EDTA). Cells were washed twice with assay medium and adjusted to 80,000 cells/mL. Approximately […] (8,000 cells) were added to flat-bottom microculture wells (Costar 3596) and incubated at 37° C. in a 5% CO2 humidified incubator for 48 hours to allow for cell adherence and equilibration after transfer. Serial dilutions of drugs or DMSO as a diluent control were prepared in assay medium and […] to triplicate microcultures followed by […] assay medium for a final volume of […]. After an additional 48 hours at 37° C. in a 5% CO2 humidified incubator, microcultures were pulsed with tritiated thymidine (1 uCi/well) for 4 hours. Cultures were terminated by freezing at -70° C. for 24 hours followed by thawing and harvesting of microcultures using a Skatron Semiautomatic Cell Harvester. Samples were counted by liquid scintillation using a Wallac BetaPlace b counter. Results in Table 3 below show the IC50 for certain compounds of the present invention.

[6] = Rattus norvegicus, 96 h, daily for 4 days, read-out: Uterine Weight (% increase vs. OVX)
[7] = Rattus norvegicus, 96 h, daily for 4 days, read-out: Serum Cholesterol (% decrease vs. OVX)

## C#CC1(O)CCC2C3CCc4cc(O)ccc4C3CCC21C (stereo not drawn) [EE2, 17α-ethynyl estradiol, reference compound]
[1]; 0.1 mg/kg
  Uterine EPO (V. max): 116.4
[1]
  Eosinophil infiltration into the uterus (stromal layer): substantial, expected increase in eosinophil infiltration
[2]; 0.1 mg/kg
  Distal Femur Metaphysis (X-ray Image Analysis-Gray Score), percent protection relative to ovariectomy: 62.4%
[2]; OVX rats, 35 days
  Prevention of bone loss (result in words): prevented this loss
[3]; [6]
  change in vivo at 0.1 mg/kg: 86.3%
[3]; EE2 at 0.1 mg/kg/day
  Uterine weight (result in words): uterine weight was substantially greater than the uterine weight of ovariectomized test animals
[4]; [7]
  inhibition in vivo at 0.1 mg/kg: 81.4%
[4]; EE2 at 0.1 mg/kg/day
  Serum cholesterol (result in words): caused a decrease in serum cholesterol

## COc1ccc2c(c1)OC(c1ccc(OCCN3CCCCC3)cc1)c1c-2sc2cc(OC)ccc12 (stereo not drawn) [Example 2, 3,9-Dimethoxy-6-[4-[2-(1-piperidinyl)ethoxy]phenyl]-6-H-[1]benzothieno[3,2-c][1]benzopyran]
[5]
  IC50: 100 nM

## O=C(Oc1ccc2c(c1)OC(c1ccc(OCCN3CCCCC3)cc1)c1c-2sc2cc(OC(=O)c3ccccc3)ccc12)c1ccccc1 (stereo not drawn) [Example 3, 3,9-Bis(benzoyloxy)-6-[4-[2-(1-piperidinyl)ethoxy]phenyl]-6-H-[1]benzothieno[3,2-c][1]benzopyran]
[1]; 0.1 mg/kg
  Uterine EPO (V. max): 4.2
[1]; 1.0 mg/kg
  Uterine EPO (V. max): 3.0
[5]
  IC50: 3 nM
[3]; [6]
  change in vivo at 0.1 mg/kg: 32.5%
  change in vivo at 1 mg/kg: 7.4%
[4]; [7]
  inhibition in vivo at 0.1 mg/kg: 51.5%
  inhibition in vivo at 1 mg/kg: 50.8%

## CC(C)(C)C(=O)Oc1ccc2c(c1)OC(c1ccc(OCCN3CCCCC3)cc1)c1c-2sc2cc(OC(=O)C(C)(C)C)ccc12 (stereo not drawn) [Example 4, 3,9-Bis(pivaloyloxy)-6-[4-[2-(1-piperidinyl)ethoxy]phenyl]-6-H-[1]benzothieno[3,2-c][1]benzopyran]
[1]; 0.1 mg/kg
  Uterine EPO (V. max): 3.3
[1]; 1.0 mg/kg
  Uterine EPO (V. max): 3.3
[5]
  IC50: 5 nM
[3]; [6]
  change in vivo at 0.1 mg/kg: 10%
  change in vivo at 1 mg/kg: 15.3%
[4]; [7]
  inhibition in vivo at 0.1 mg/kg: 62.6%
  inhibition in vivo at 1 mg/kg: 48.2%

## c1ccc2c(c1)OC(c1ccc(OCCN3CCCCC3)cc1)c1c-2sc2ccccc12 (stereo not drawn) [Example 7, 6-[4-[2-(1-piperidinyl)ethoxy]phenyl]-6-H-[1]benzothieno[3,2-c][1]benzopyran]
[1]; 0.1 mg/kg
  Uterine EPO (V. max): 4.8
[1]; 1.0 mg/kg
  Uterine EPO (V. max): 6.6
[1]; 10.0 mg/kg
  Uterine EPO (V. max): 3.6
[3]; [6]
  change in vivo at 0.1 mg/kg: 28.9%
  change in vivo at 1 mg/kg: 31.2%
  change in vivo at 10 mg/kg: 14.7%
[4]; [7]
  inhibition in vivo at 0.1 mg/kg: 39.8%
  inhibition in vivo at 1 mg/kg: 65.5%
  inhibition in vivo at 10 mg/kg: 54%

## Oc1ccc2c(c1)OC(c1ccc(OCCN3CCCC3)cc1)c1c-2sc2cc(O)ccc12 (stereo not drawn) [Example 8, 3,9-Dihydroxy-6-[4-[2-(1-pyrrolidinyl)ethoxy]phenyl]-6-H-[1]benzothieno[3,2-c][1]benzopyran]
[1]; 0.01 mg/kg
  Uterine EPO (V. max): 2.1
[1]; 0.1 mg/kg
  Uterine EPO (V. max): 4.8
[1]; 1.0 mg/kg
  Uterine EPO (V. max): 4.8
[3]; Rattus norvegicus, 96 h, 0.01 mg/kg, daily for 4 days, read-out: Uterine Weight (% increase vs. OVX)
  change in vivo at 0.01 mg/kg: 10.2%
[3]; [6]
  change in vivo at 0.1 mg/kg: 27.4%
  change in vivo at 1 mg/kg: 27.2%
[4]; Rattus norvegicus, 96 h, 0.01 mg/kg, daily for 4 days, read-out: Serum Cholesterol (% decrease vs. OVX)
  inhibition in vivo at 0.01 mg/kg: 50.5%
[4]; [7]
  inhibition in vivo at 0.1 mg/kg: 38.5%
  inhibition in vivo at 1 mg/kg: 68%

## CN(C)CCOc1ccc(C2Oc3cc(O)ccc3-c3sc4cc(O)ccc4c32)cc1 (stereo not drawn) [Example 9, 3,9-Dihydroxy-6-[4-(2-dimethylaminoethoxy)phenyl]-6-H-[1]benzothieno[3,2-c][1]benzopyran]
[1]; 0.1 mg/kg
  Uterine EPO (V. max): 52.2
[3]; [6]
  change in vivo at 0.1 mg/kg: 77.8%
[4]; [7]
  inhibition in vivo at 0.1 mg/kg: 40.1%

## Oc1ccc2c(c1)OC(c1ccc(OCCN3CCCCC3)cc1)c1c-2ccc2cc(O)ccc12 (stereo not drawn) [Example 11b, 2,8-Dihydroxy-5-[4-[2-(1-piperidinyl)ethoxy]phenyl]-5H-benzo[b]naphtho[2,1-d]pyran]
[1]; 0.1 mg/kg
  Uterine EPO (V. max): 9.3
[1]; 1.0 mg/kg
  Uterine EPO (V. max): 12.0
[1]; 10.0 mg/kg
  Uterine EPO (V. max): 7.8
[2]; 0.01 mg/kg
  Distal Femur Metaphysis (X-ray Image Analysis-Gray Score), percent protection relative to ovariectomy: 45.6%
[2]; 0.1 mg/kg
  Distal Femur Metaphysis (X-ray Image Analysis-Gray Score), percent protection relative to ovariectomy: 38.5%
[2]; 1.0 mg/kg
  Distal Femur Metaphysis (X-ray Image Analysis-Gray Score), percent protection relative to ovariectomy: 58.5%
[2]; 10.0 mg/kg
  Distal Femur Metaphysis (X-ray Image Analysis-Gray Score), percent protection relative to ovariectomy: 37.3%
[3]; [6]
  change in vivo at 0.1 mg/kg: 13.6%
  change in vivo at 1 mg/kg: 7.6%
  change in vivo at 10 mg/kg: -4.1%
[4]; [7]
  inhibition in vivo at 0.1 mg/kg: 66.4%
  inhibition in vivo at 1 mg/kg: 73.9%
  inhibition in vivo at 10 mg/kg: 61.4%
